Reference: patent US10016424B2, “Method and pharmaceutical composition for use in the treatment of epilepsy” (INSERM (Institut National de la Sante et de la Recherche …, priority 2013, dated 2018)

Tests used:
AMPA receptor = details: cited from earlier work
[1] = test system: dentate gyrus of organotypic slices; assay: Spontaneous interictal-like activity, extracellular field recordings in pilocarpine-treated organotypic hippocampal slice cultures; format: cell-based, mouse
Protocol: (§1) Hippocampal/entorhinal cortex slices (350 μm) were prepared from pre-genotyped GluK2−/− and WT mice (P9-10, FVB/N background) using a McIlwain tissue chopper. Slices were placed on mesh inserts (Millipore # PICMORG50) inside culture dishes containing 1 ml of the following medium: MEM 50%, HS 25%, HBSS 25%, HEPES 15 mM glucose 6.5 mg/ml and insulin 0.1 mg/ml. Culture medium was changed every 2-3 days and slices maintained in an incubator at 37° C./5% CO2. Pilocarpine (0.5 μM) was added to the medium at 5 D.I.V and removed at 7 D.I.V; slices were utilized for experiments from 9 D.I.V.
Cultured or acute slices were individually transferred to a recording chamber maintained at 30-32° C. and continuously perfused (2 ml/min) with oxygenated normal or adapted ACSF containing 5 μM gabazine. Local field potentials were made in the granule cell layer of the DG with glass electrodes (2-3 MΩ; filled with normal ACSF) using a DAM-80 amplifier (low filter, 1 Hz; […], 3 KHz; World Precision Instruments, Sarasota, Fla.). For evoked synaptic transmission, electrical stimulation was performed with a bipolar NiCh electrode (#762000, AM systems). Whole-cell voltage-clamp recordings of DGCs were made using tight-seal electrodes (5-8 MΩ) filled with an internal solution containing the following (in mM): 135 gluconic acid, 135 CsOH, 10 MgCl2, 0.1 CaCl2, 1 EGTA, 10 HEPES, 2 MgATP, 0.4 NaGTP, and 0.5% biocytin, pH 7.25. We used a Multiclamp 700B amplifier (Molecular Devices): data were filtered at 2 kHz, digitized (20 kHz) with a Digidata 1440A (Molecular Devices) to a PC, and acquired using Clampex 10.1 software (PClamp, Molecular Devices). Signals were analyzed off-line using Clampfit 9.2 (PClamp) and MiniAnalysis 6.0.1 (Synaptosoft, Decatur, Ga.). In organotypic slices, spontaneous EPSCs were recorded at the reversal potential for GABAergic currents (Vh=−70 mV). To characterize the nature and kinetic properties of fast and slow events, miniature EPSCs (mEPSCs) evoked in Sr2+ conditions (external Ca2+ was substituted with 1.2 mM Sr2+) were recorded in DGCs from GluK2−/− and WT slices. Electrical stimulation was made in the molecular layer in the continued presence of 5 μM gabazine and 40 μM D-APV; asynchronous mEPSCs were measured during the 300 ms period after the stimulus artifact. […] In cultured slices, visual representation of time-frequency analysis of local field potentials was performed using Autosignal software (Seasolve 1.7). In brief, field activity was highpass-filtered (>100 Hz) and time-frequency analysis performed using a continuous wavelet (Morlet) that reported integrated power (time-integral-squared amplitude, TISA) across time. Filtered traces were also analyzed by Fourier analysis (Hamming) using Clampfit 9.2. In acute hippocampal slices, intensity of antidromically-evoked bursts was quantified using coastline index (Epsztein et al., 2005).
The role of KARs in spontaneous epileptiform activity was then tested using extracellular field recordings in cultured slices. Recordings were performed in 5 mM K+-containing ACSF and in the presence of 5 μM gabazine in order to enhance neuronal excitability and to reliably record stereotyped spontaneous interictal-like activity (Berdichevsky et al., 2012).

KARs = molecular target: T1, KARs (Mus musculus, UniProt P39087+Q61626); format: cell-based; details: WT cultured slices; SYM2081 10 μM, UBP310 5 μM; Sr2+ conditions, 5 μM gabazine, 40 μM D-APV
T1 construct: from tissue; host or cells: dentate granule cells in pilocarpine-treated organotypic hippocampal/entorhinal slice cultures from WT mice (FVB/N)
Protocol: as §1
Cultured or acute slices were individually transferred to a recording chamber maintained at 30-32° C. and continuously perfused (2 ml/min) with oxygenated normal or adapted ACSF containing 5 μM gabazine. Local field potentials were made in the granule cell layer of the DG with glass electrodes (2-3 MΩ; filled with normal ACSF) using a DAM-80 amplifier (low filter, 1 Hz; […], 3 KHz; World Precision Instruments, Sarasota, Fla.). For evoked synaptic transmission, electrical stimulation was performed with a bipolar NiCh electrode (#762000, AM systems). […] Signals were analyzed off-line using Clampfit 9.2 (PClamp) and MiniAnalysis 6.0.1 (Synaptosoft, Decatur, Ga.). In organotypic slices, spontaneous EPSCs were recorded at the reversal potential for GABAergic currents (Vh=−70 mV). To characterize the nature and kinetic properties of fast and slow events, miniature EPSCs (mEPSCs) evoked in Sr2+ conditions (external Ca2+ was substituted with 1.2 mM Sr2+) were recorded in DGCs from GluK2−/− and WT slices. Electrical stimulation was made in the molecular layer in the continued presence of 5 μM gabazine and 40 μM D-APV; asynchronous mEPSCs were measured during the 300 ms period after the stimulus artifact. […] Filtered traces were also analyzed by Fourier analysis (Hamming) using Clampfit 9.2. In acute hippocampal slices, intensity of antidromically-evoked bursts was quantified using coastline index (Epsztein et al., 2005).

[2] = slices from WT mice, 10 μM SYM2081 or 5 μM UBP310

T1 sequence (P39087 32-908): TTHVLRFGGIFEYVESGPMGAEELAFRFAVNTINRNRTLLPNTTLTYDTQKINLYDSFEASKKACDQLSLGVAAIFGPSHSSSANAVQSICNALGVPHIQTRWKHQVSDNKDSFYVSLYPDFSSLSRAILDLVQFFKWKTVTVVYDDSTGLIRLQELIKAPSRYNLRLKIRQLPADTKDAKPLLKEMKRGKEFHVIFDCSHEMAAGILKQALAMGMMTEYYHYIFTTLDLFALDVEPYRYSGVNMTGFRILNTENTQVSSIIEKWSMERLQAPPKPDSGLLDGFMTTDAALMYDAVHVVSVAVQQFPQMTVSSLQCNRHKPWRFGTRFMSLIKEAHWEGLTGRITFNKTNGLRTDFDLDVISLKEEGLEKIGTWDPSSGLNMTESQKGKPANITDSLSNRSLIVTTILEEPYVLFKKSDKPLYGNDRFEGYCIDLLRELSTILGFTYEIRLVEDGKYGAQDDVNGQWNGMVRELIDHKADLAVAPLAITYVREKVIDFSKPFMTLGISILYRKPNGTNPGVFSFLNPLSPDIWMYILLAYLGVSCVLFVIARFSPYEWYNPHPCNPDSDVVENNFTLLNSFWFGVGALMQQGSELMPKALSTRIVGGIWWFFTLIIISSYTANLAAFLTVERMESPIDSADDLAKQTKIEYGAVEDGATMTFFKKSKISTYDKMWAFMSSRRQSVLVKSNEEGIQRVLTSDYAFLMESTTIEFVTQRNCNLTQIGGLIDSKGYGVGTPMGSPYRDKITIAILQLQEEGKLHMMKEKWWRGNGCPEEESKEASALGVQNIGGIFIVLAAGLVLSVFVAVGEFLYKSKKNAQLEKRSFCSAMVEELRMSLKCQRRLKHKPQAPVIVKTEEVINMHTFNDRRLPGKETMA
T1 sequence (Q61626 15-979): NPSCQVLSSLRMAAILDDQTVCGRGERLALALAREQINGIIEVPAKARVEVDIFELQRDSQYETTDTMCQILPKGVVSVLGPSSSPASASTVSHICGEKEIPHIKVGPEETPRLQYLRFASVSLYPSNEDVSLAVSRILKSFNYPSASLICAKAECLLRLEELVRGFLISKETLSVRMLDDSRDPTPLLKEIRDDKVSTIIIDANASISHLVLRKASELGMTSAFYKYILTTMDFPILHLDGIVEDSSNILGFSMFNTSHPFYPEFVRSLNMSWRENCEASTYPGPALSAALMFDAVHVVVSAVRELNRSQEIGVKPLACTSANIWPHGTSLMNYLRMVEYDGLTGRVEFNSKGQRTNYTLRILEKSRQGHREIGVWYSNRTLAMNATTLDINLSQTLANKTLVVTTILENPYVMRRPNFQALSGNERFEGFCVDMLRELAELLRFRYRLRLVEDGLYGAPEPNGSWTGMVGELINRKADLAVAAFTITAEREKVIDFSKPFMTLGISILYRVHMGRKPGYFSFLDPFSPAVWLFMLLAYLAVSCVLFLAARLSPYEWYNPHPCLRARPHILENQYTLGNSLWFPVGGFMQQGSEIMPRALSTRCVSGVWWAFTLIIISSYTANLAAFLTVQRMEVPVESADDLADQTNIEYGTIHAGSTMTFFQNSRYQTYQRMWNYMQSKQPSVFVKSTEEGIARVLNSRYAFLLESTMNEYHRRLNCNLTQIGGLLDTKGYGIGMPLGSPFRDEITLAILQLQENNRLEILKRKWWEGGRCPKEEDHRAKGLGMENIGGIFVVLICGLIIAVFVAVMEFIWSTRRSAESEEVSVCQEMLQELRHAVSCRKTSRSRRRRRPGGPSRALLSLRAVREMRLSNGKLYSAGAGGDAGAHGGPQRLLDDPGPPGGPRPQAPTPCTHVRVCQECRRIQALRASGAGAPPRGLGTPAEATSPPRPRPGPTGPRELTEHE

Cc1cn(C[C@H](N)C(=O)O)c(=O)n(Cc2ccsc2C(=O)O)c1=O [UBP310]
interference with normal synaptic transmission due to the AMPA receptor (AMPA receptor): does not interfere
effect on interictal-like activity in GluK2-/- mice slices ([1]; GluK2-/- slices, P=0.563, n=7): no effect
alteration of the PD phase (power of paroxysmal discharge) [1, 2]: No significant alteration
reduction of power of the bursts in the late MB phase [1, 2]: 67%
reduction of frequency of interictal-like activity ([1]; slices from WT mice, 10 μM SYM2081 or 5 μM UBP310, 5 mM K+ ACSF, 5 μM gabazine): 49%
frequency of interictal-like activity ([1]; slices from WT mice, 10 μM SYM2081 or 5 μM UBP310, without antagonist 3.2±0.4, mean±SEM): 1.47±0.4 events/min
effect on KAR-mediated mEPSCs (KARs): abolished
